In experiment [1] the test system is H9c2. The experiment in a line: Cardioprotective activity against CoCl2-induced cellular hypoxia injury in rat H9c2 cells assessed as cell viability at 2.5 uM incubated for 24 hrs by CCK-8 assay (reference value: 51.80 +/- 2.58 %). The experiment is classed as functional. The note with it: read-out: Activity.
The subject of experiment [2] is H9c2. The experiment in a line: Cardioprotective activity against CoCl2-induced cellular hypoxia injury in rat H9c2 cells assessed as cell viability at 0.625 uM incubated for 24 hrs by CCK-8 assay (reference value: 51.80 +/- 2.58 %). The experiment is classed as functional. The settings on record: read-out: Activity.
Experiment [3] concerns H9c2. Kind of experiment: Cardioprotective activity against CoCl2-induced cellular hypoxia injury in rat H9c2 cells assessed as cell viability at 10 uM incubated for 24 hrs by CCK-8 assay (reference value: 51.80 +/- 2.58 %). The experiment is classed as functional. The settings on record: read-out: Activity.
In experiment [4] the test system is H9c2. Kind of experiment: Cardioprotective activity against CoCl2-induced cellular hypoxia injury in rat H9c2 cells assessed as cell viability at 5 uM incubated for 24 hrs by CCK-8 assay (reference value: 51.80 +/- 2.58 %). The experiment is classed as functional. The note with it: read-out: Activity.
The test system of experiment [5] is H9c2. The experiment in a line: Cardioprotective activity against CoCl2-induced cellular hypoxia injury in rat H9c2 cells assessed as increase in cell viability at 30 uM incubated for 24 hrs by CCK-8 assay. It is filed as functional, cell-based.
In experiment [6] the test system is H9c2. Kind of experiment: Cardioprotective activity against CoCl2-induced cellular hypoxia injury in rat H9c2 cells assessed as cell viability at 1.25 uM incubated for 24 hrs by CCK-8 assay (reference value: 51.80 +/- 2.58 %). The note with it: read-out: Activity. It is filed as functional.

Calls of active or inactive are those of the source. The rule behind the calls is not given here.

In the case of `O=C(O)c1ccc(N=C=S)cc1`, in experiment [1], the viability at 2.5 µM came out at 59.3%. For the same compound, the viability at 0.625 µM in experiment [2] was found to be 51.1%. In addition, the viability at 10 µM in experiment [3] turned out to be 63.5%. Also, the viability at 5 µM in experiment [4] came to 59.5%. Besides, in experiment [5], the result was inactive. The viability at 1.25 µM in experiment [6] is 53.7%.
As to `CC(C)(O)[C@@H]1CC[C@@](C)([C@H]2CC[C@]3(C)[C@@H]2[C@H](O)C[C@@H]2[C@@]4(C)CC[C@H](OC(=O)c5ccc(N=C=S)cc5)C(C)(C)[C@@H]4CC[C@]23C)O1`, the viability at 2.5 µM in experiment [1] turned out to be 67.1%. Moreover, the viability at 0.625 µM in experiment [2] came to 62.2%. Also, in experiment [3], the viability at 10 µM worked out at 77.1%. Moreover, in experiment [4], the viability at 5 µM turned out to be 70%. Further, the result in experiment [5] was inactive. In experiment [6], the viability at 1.25 µM turned out to be 62.2%.
Turning to `CC(C)(O)[C@@H]1CC[C@@](C)([C@H]2CC[C@]3(C)[C@@H]2[C@H](O)C[C@@H]2[C@@]4(C)CC[C@H](OC(=O)CCC(=O)Oc5ccc(-c6cc(=S)ss6)cc5)C(C)(C)[C@@H]4CC[C@]23C)O1`, the viability at 2.5 µM in experiment [1] came out at 79.6%. Further, the viability at 0.625 µM in experiment [2] came to 68.4%. In addition, the viability at 10 µM in experiment [3] was determined as 82.2%. Also, the viability at 5 µM in experiment [4] is 80%. In experiment [5], the result was inactive. For the same compound, the viability at 1.25 µM in experiment [6] was determined as 71.4%.
On to `CC(C)=CCC[C@](C)(O)[C@H]1CC[C@]2(C)[C@@H]1[C@H](O)C[C@@H]1[C@@]3(C)CC[C@H](O)C(C)(C)[C@@H]3[C@@H](O)C[C@]12C`, for which the viability at 2.5 µM in experiment [1] is 67.3%. Moreover, in experiment [2], the viability at 0.625 µM was 66%. Moreover, the viability at 10 µM in experiment [3] was found to be 71.6%. Besides, the viability at 5 µM in experiment [4] came to 71.4%. Besides, in experiment [5], the result was inactive. Besides, the viability at 1.25 µM in experiment [6] is 66.8%.
As for `C=CCSSCCC(=O)O[C@H]1CC[C@]2(C)[C@H]3C[C@@H](O)[C@@H]4[C@@H]([C@]5(C)CC[C@H](C(C)(C)O)O5)CC[C@@]4(C)[C@]3(C)C[C@H](O)[C@H]2C1(C)C`, the viability at 2.5 µM in experiment [1] came out at 62.9%. Moreover, the viability at 0.625 µM in experiment [2] was found to be 68.1%. For the same compound, the viability at 10 µM in experiment [3] turned out to be 69.7%. The viability at 5 µM in experiment [4] amounted to 66.5%. Moreover, the outcome in experiment [5] was inactive. In experiment [6], the viability at 1.25 µM worked out at 64.5%.
Take `CC(C)=CCC[C@](C)(O)[C@H]1CC[C@]2(C)[C@@H]1[C@H](O)C[C@@H]1[C@@]3(C)CC[C@H](OC(=O)c4ccc(N=C=S)cc4)C(C)(C)[C@@H]3[C@@H](O)C[C@]12C`: the viability at 2.5 µM in experiment [1] is 54%. The viability at 0.625 µM in experiment [2] worked out at 50.9%. For the same compound, the viability at 10 µM in experiment [3] stood at 54.8%. In experiment [4], the viability at 5 µM is 56.6%. The outcome in experiment [5] was inactive. Moreover, in experiment [6], the viability at 1.25 µM is 55.2%.
In the case of `CC(C)(O)[C@H]1CC[C@@](C)([C@H]2CC[C@]3(C)[C@@H]2[C@H](O)C[C@@H]2[C@@]4(C)CC[C@H](O)C(C)(C)[C@@H]4[C@@H](O)C[C@]23C)O1`, in experiment [1], the viability at 2.5 µM turned out to be 57%. In experiment [2], the viability at 0.625 µM was 56.5%. Moreover, the viability at 10 µM in experiment [3] is 61.5%. Besides, in experiment [4], the viability at 5 µM is 55.6%. In addition, the outcome in experiment [5] was inactive. Further, the viability at 1.25 µM in experiment [6] was found to be 55.6%.
In the case of `CC(C)(O)[C@H]1CC[C@@](C)([C@H]2CC[C@]3(C)[C@@H]2[C@H](O)C[C@@H]2[C@@]4(C)CC[C@H](OC(=O)CCC(=O)Oc5ccc(-c6cc(=S)ss6)cc5)C(C)(C)[C@@H]4CC[C@]23C)O1`, in experiment [1], the viability at 2.5 µM is 67.5%. Moreover, in experiment [2], the viability at 0.625 µM is 65.1%. In addition, the viability at 10 µM in experiment [3] amounted to 72.5%. Also, in experiment [4], the viability at 5 µM worked out at 69.5%. The result in experiment [5] was inactive. In addition, in experiment [6], the viability at 1.25 µM was 66.8%.
For `C=CCSSCCC(=O)O[C@H]1CC[C@]2(C)[C@H]3C[C@@H](O)[C@@H]4[C@@H]([C@@](C)(O)CCC=C(C)C)CC[C@@]4(C)[C@]3(C)C[C@H](O)[C@H]2C1(C)C`, in experiment [1], the viability at 2.5 µM came to 64.4%. For the same compound, the viability at 0.625 µM in experiment [2] was 49%. Further, the viability at 10 µM in experiment [3] amounted to 65.7%. Besides, the viability at 5 µM in experiment [4] amounted to 63.1%. For the same compound, in experiment [5], the outcome was inactive. In experiment [6], the viability at 1.25 µM amounted to 58.4%.
For `CC(C)(O)[C@H]1CC[C@@](C)([C@H]2CC[C@]3(C)[C@@H]2[C@H](O)C[C@@H]2[C@@]4(C)CC[C@H](OC(=O)CCC(=O)Oc5ccc(-c6cc(=S)ss6)cc5)C(C)(C)[C@@H]4[C@@H](O)C[C@]23C)O1`, in experiment [1], the viability at 2.5 µM was 68.4%. The viability at 0.625 µM in experiment [2] stood at 67.3%. Moreover, the viability at 10 µM in experiment [3] amounted to 68.3%. Moreover, in experiment [4], the viability at 5 µM turned out to be 68.1%. Besides, in experiment [5], the result was inactive. The viability at 1.25 µM in experiment [6] came to 66.2%.
In the case of `O=C(O)CCC(=O)Oc1ccc(-c2cc(=S)ss2)cc1`, the viability at 2.5 µM in experiment [1] was 74.3%. The viability at 0.625 µM in experiment [2] is 66.4%. Besides, the viability at 10 µM in experiment [3] came out at 80.3%. For the same compound, the viability at 5 µM in experiment [4] worked out at 77.6%. In addition, in experiment [5], the outcome was inactive. The viability at 1.25 µM in experiment [6] was determined as 67.4%.
Take `CC(C)(O)[C@H]1CC[C@@](C)([C@H]2CC[C@]3(C)[C@@H]2[C@H](O)C[C@@H]2[C@@]4(C)CC[C@H](O)C(C)(C)[C@@H]4CC[C@]23C)O1`: the viability at 2.5 µM in experiment [1] worked out at 65.4%. Besides, the viability at 0.625 µM in experiment [2] came to 68.7%. Further, in experiment [3], the viability at 10 µM stood at 75.5%. Besides, the viability at 5 µM in experiment [4] was found to be 66.9%. In addition, in experiment [5], the outcome was inactive. Further, the viability at 1.25 µM in experiment [6] was found to be 66.4%.
As to `CC(C)=CCC[C@](C)(O)[C@H]1CC[C@]2(C)[C@@H]1[C@H](O)C[C@@H]1[C@@]3(C)CC[C@H](O)C(C)(C)[C@@H]3CC[C@]12C`, in experiment [1], the viability at 2.5 µM was found to be 67.5%. Also, in experiment [2], the viability at 0.625 µM worked out at 52.5%. Besides, the viability at 10 µM in experiment [3] turned out to be 68.8%. Moreover, the viability at 5 µM in experiment [4] was 67.5%. In experiment [5], the outcome was inactive. The viability at 1.25 µM in experiment [6] was determined as 63%.
With `CC(C)(O)[C@H]1CC[C@@](C)([C@H]2CC[C@]3(C)[C@@H]2[C@H](O)C[C@@H]2[C@@]4(C)CC[C@H](OC(=O)c5ccc(N=C=S)cc5)C(C)(C)[C@@H]4[C@@H](O)C[C@]23C)O1`, the viability at 2.5 µM in experiment [1] worked out at 57.1%. The viability at 0.625 µM in experiment [2] stood at 52.5%. Besides, in experiment [3], the viability at 10 µM is 58.5%. In addition, the viability at 5 µM in experiment [4] amounted to 58.6%. Also, the outcome in experiment [5] was inactive. Further, the viability at 1.25 µM in experiment [6] worked out at 59.6%.
Take `CC(C)(O)[C@@H]1CC[C@@](C)([C@H]2CC[C@]3(C)[C@@H]2[C@H](O)C[C@@H]2[C@@]4(C)CC[C@H](O)C(C)(C)[C@@H]4[C@@H](O)C[C@]23C)O1` [PROTOPANAXATRIOL OXIDE II]: in experiment [1], the viability at 2.5 µM was 56.7%. Besides, the viability at 0.625 µM in experiment [2] came out at 52%. Further, the viability at 10 µM in experiment [3] amounted to 73.4%. Moreover, the viability at 5 µM in experiment [4] is 69.6%. For the same compound, in experiment [5], the outcome was inactive. Further, the viability at 1.25 µM in experiment [6] was determined as 54%.
Regarding `O=C(Nc1ccccc1-c1cn2c(CN3CCNCC3)csc2n1)c1cnc2ccccc2n1`, in experiment [1], the viability at 2.5 µM stood at 80.6%. Moreover, in experiment [2], the viability at 0.625 µM was 71.7%. For the same compound, the viability at 10 µM in experiment [3] is 88.4%. In experiment [4], the viability at 5 µM turned out to be 83.3%. Further, the viability at 1.25 µM in experiment [6] stood at 73.3%.
